Assay results: publication PMC6263664 (CPT: Pharmacometrics & Systems Pharmacology, 2018)
Several values for one entry are separate records, joined by “and”; a condition that tells them apart may be missing. Equal entries are not always repeated. Where two headings read alike, the source gives them in different places. Marks after values point to notes of the source that are not given here.

What was measured:
[1] = Updated stage 1 / stage 2 population pharmacokinetic analysis; type: in vivo, human; settings: for ACS subjects (θ13) effect on Vc/F, Estimate ± SE / Evening dosing (AM/PM = 2) (θ10) effect on ka, Estimate ± SE / NVAF subjects (θ12) effect on Vc/F, Estimate ± SE: fractional change; for Vd/F: Vc/F (θ3) apparent volume of distribution of the central compartment, Estimate ± SE; for D_WTB (θ11) baseline body weight effect on Vc/F, Estimate ± SE: power coefficient
[2] = tested on: breast cancer resistance protein; settings: cited from earlier work
[3] = tested on: cytochrome P450 3A4 (CYP3A4); settings: cited from earlier work
[4] = cited from earlier work
[5] = type: in vivo, human
[6] = cited from earlier work; remark: listed apart in the source
[7] = vs normal renal function, phase I; cited from earlier work
[8] = tested on: P‐glycoprotein (P‐gp); settings: cited from earlier work
[9] = relative to the typical 70‐kg NVAF subject
[10] = fractional change, stage 2 final ad hoc model
[11] = power coefficient, stage 2 final ad hoc model
[12] = relative to non‐Asian typical patients with NVAF

For `COc1ccc(-n2nc(C(N)=O)c3c2C(=O)N(c2ccc(N4CCCCC4=O)cc2)CC3)cc1` [apixaban], which “predicted increase in AUCss, moderate renal impairment” value ([1]; NVAF, cCrCL 40 mL/minute, compared with normal renal function) is on record?
Its value is 28%.

What about the “predicted increase in AUCss, mild renal impairment” value ([1]; NVAF, cCrCL = 65 mL/minute, compared with normal renal function) of the same compound?
The value was 9%.

And the “increase in exposure with strong/moderate inhibitors of both CYP3A4 and P‐gp” value ([1]; PPK estimate)?
The value was ~ 17%.

What about the “CLR/F (θ2) apparent renal clearance, Estimate ± SE” value ([1]; cCrCL reference 80 mL/minute, stage 2 final model) of the same compound?
Its value is 1.57 ± 0.117 L/h.

What about the “reduced CL/F, ACS” value ([1]; compared with healthy subjects) of the same compound?
Its value is 21.5%.

What about the “reduced CL/F, Asian race” value ([1]; compared with non‐Asian subjects) of the same compound?
The value was 11.9%.

What about the “ACS subjects (θ13) effect on Vc/F, Estimate ± SE” value (“ACS subjects … Estimate ± SE” for short) ([1]; stage 2 final model) of the same compound?
The value was −0.180 ± 0.0446.

What about the “Evening dosing (AM/PM = 2) (θ10) effect on ka, Estimate ± SE” value (“Evening dosing … Estimate ± SE” for short) ([1]; stage 2 final model) of the same compound?
The value was −0.433 ± 0.0236.

And the “NVAF subjects (θ12) effect on Vc/F, Estimate ± SE” value (shortened to “NVAF subjects … Estimate ± SE”) ([1]; stage 2 final model)?
The value was −0.0405 ± 0.0491.

And the “ACS subjects … Estimate ± SE” value ([1]; updated stage 1 final model)?
Its value is −0.177 ± 0.0449.

And the “Evening dosing … Estimate ± SE” value ([1]; updated stage 1 final model)?
The value was −0.434 ± 0.0234.

What about the “NVAF subjects … Estimate ± SE” value ([1]; updated stage 1 final model) of the same compound?
The value was −0.0217 ± 0.0501.

What about the “effect of strong CYP3A4/P‐gp inducers on CL/F” value ([1]; full stage 2 model, not included in final model) of the same compound?
Its value is “very small and poorly estimated”.

What about the CL renal ([1]; human, plasma, oral) of the same compound?
Its CL renal is 26.2 mL/min.

What about the Vd/F ([1]; human, plasma, oral, stage 2 final model) of the same compound?
The Vd/F was 30 ± 0.971 L.

And the Vd/F ([1]; human, plasma, oral, updated stage 1 final model)?
The Vd/F was 29.8 ± 0.981 L.

What about the “impact of Asian race on exposure” value ([1]; in vivo) of the same compound?
Its value is under 15%.

What about the “D_WTB (θ11) baseline body weight effect on Vc/F, Estimate ± SE” value (shortened to “D_WTB … Estimate ± SE”) ([1]; stage 2 final model) of the same compound?
The value was 0.790 ± 0.0645.

What about the “D_WTB … Estimate ± SE” value ([1]; updated stage 1 final model) of the same compound?
The value was 0.806 ± 0.0649.

What about the “decrease in ka with administration in the evening” value ([1]; relative to administration in the morning or afternoon) of the same compound?
The value was 43%.

What about the “increase in Vc/F for a 90‐kg subject” value [1, 9] of the same compound?
Its value is 22%.

What about the “reduction in Vc/F for a 50‐kg subject” value [1, 9] of the same compound?
The value was 23.3%.

And the “Logit for reduction in Frel at 50 mg (I50) (θ9), Estimate ± SE” value (“Logit for reduction in Frel … Estimate ± SE” for short) ([1]; stage 2 final model)?
The value was −0.322 ± 0.0512.

What about the “Shape parameter for Frel (γ) (θ8), Estimate ± SE” value (from here on “Shape parameter … Estimate ± SE”) ([1]; stage 2 final model) of the same compound?
The value was 0.857 ± 0.0684.

And the “Vp/F (θ5) apparent volume of distribution of the peripheral compartment, Estimate ± SE” value (from here on “Vp/F (θ5) apparent volume … Estimate ± SE”) ([1]; stage 2 final model)?
The value was 27.0 ± 2.03 L.

What about the “ka (θ1) absorption rate constant, Estimate ± SE” value ([1]; stage 2 final model) of the same compound?
The value was 0.473 ± 0.0208 h⁻¹.

What about the “Logit for reduction in Frel … Estimate ± SE” value ([1]; updated stage 1 final model) of the same compound?
The value was −0.321 ± 0.0512.

And the “Shape parameter … Estimate ± SE” value ([1]; updated stage 1 final model)?
Its value is 0.853 ± 0.0693.

What about the “Vp/F (θ5) apparent volume … Estimate ± SE” value ([1]; updated stage 1 final model) of the same compound?
The value was 26.7 ± 1.89 L.

And the “ka (θ1) absorption rate constant, Estimate ± SE” value ([1]; updated stage 1 final model)?
The value was 0.471 ± 0.0204 h⁻¹.

What about the “change in exposure due to individual covariate (demographic) effects” value ([1]; vs the reference NVAF subject, except severe renal impairment) of the same compound?
The value was < 25% and ≤ 25%.

What about the substrate status [2] of the same compound?
The substrate status was “substrate”.

And the “pathway of plasma elimination” value [3]?
Its value is “metabolism primarily by cytochrome P450 3A4 (CYP3A4)”.

And the “increase in AUC when co‐administered with diltiazem” value ([4]; diltiazem, a moderate CYP3A4/P‐gp inhibitor)?
The value was 40%.

And the “increase in AUC when co‐administered with ketoconazole” value ([4]; ketoconazole, a strong CYP3A4/P‐gp inhibitor)?
The value was 99%.

What about the “ACS subjects … Estimate ± SE” value [5, 10] of the same compound?
Its value is −0.184 ± 0.0463.

And the “Evening dosing … Estimate ± SE” value [5, 10]?
The value was −0.436 ± 0.0237.

What about the “Female (θ15) effect on CLNR/F, Estimate ± SE” value [5, 10] of the same compound?
The value was −0.227 ± 0.0269.

And the “NVAF subjects … Estimate ± SE” value [5, 10]?
Its value is −0.0530 ± 0.0508.

What about the CL renal ([5]; human, plasma, oral) of the same compound?
The CL renal was 26.7 mL/min.

What about the Vd/F ([5]; human, plasma, oral) of the same compound?
Its Vd/F is 30 ± 1.04 L.

What about the “Age (θ14) effect on CLNR/F, Estimate ± SE” value [5, 11] of the same compound?
The value was −0.414 ± 0.0727.

And the “D_WTB … Estimate ± SE” value [5, 11]?
Its value is 0.792 ± 0.0648.

What about the “CL/F higher in Korean subjects” value ([5]; relative to non‐Asian subjects) of the same compound?
Its value is 3.3%.

And the “CL/F lower in Japanese subjects” value ([5]; relative to non‐Asian subjects)?
Its value is 15.1%.

What about the “CL/F lower in other Asian subjects” value ([5]; relative to non‐Asian subjects) of the same compound?
Its value is 4.3%.

And the “change in daily AUCss, Japanese” value [5, 12]?
The value was 17.7%.

What about the “change in daily AUCss, Korean” value [5, 12] of the same compound?
Its value is −3.2%.

What about the “change in daily AUCss, other Asian races” value [5, 12] of the same compound?
The value was 4.5%.

And the “change in population mean total CL/F, Japanese” value [5, 12]?
Its value is −15.1%.

And the “change in population mean total CL/F, Korean” value [5, 12]?
Its value is 3.3%.

What about the “change in population mean total CL/F, other Asian races” value [5, 12] of the same compound?
Its value is −4.3%.

What about the “CL/F apparent total clearance” value ([5]; simple sum of CLR/F and CLNR/F, stage 2 final ad hoc model) of the same compound?
The value was 3.62 ^a L/hour.

What about the “Logit for reduction in Frel … Estimate ± SE” value ([5]; stage 2 final ad hoc model) of the same compound?
The value was −0.327 ± 0.0519.

What about the “Shape parameter … Estimate ± SE” value ([5]; stage 2 final ad hoc model) of the same compound?
The value was 0.875 ± 0.0779.

And the “Vp/F (θ5) apparent volume … Estimate ± SE” value ([5]; stage 2 final ad hoc model)?
Its value is 27.3 ± 2.78 L.

What about the “ka (θ1) absorption rate constant, Estimate ± SE” value ([5]; stage 2 final ad hoc model) of the same compound?
Its value is 0.471 ± 0.0218 h⁻¹.

And the oral bioavailability [6]?
Its oral bioavailability is ~ 50%.

What about the “steady‐state volume of distribution” value [6] of the same compound?
Its value is ~ 21 liters.

And the “time dependency of pharmacokinetics” value [6]?
The value was “no time dependency”.

And the total clearance [6]?
Its total clearance is 3.3 L/h.

And the “Renal clearance as share of total systemic clearance” value ([6]; following intravenous administration, healthy subjects)?
The value was ~ 27%.

And the “half‐life” value ([6]; following oral administration)?
Its value is ~ 12 hours.

And the “dose dependence of exposure” value ([6]; therapeutic dose range (2.5–10 mg))?
Its value is “dose‐proportional increase in exposure”.

And the “higher estimated AUCINF, mild renal impairment” value [7]?
The value was ~ 16%.

What about the “higher estimated AUCINF, moderate renal impairment” value [7] of the same compound?
The value was about 29%.

And the “higher estimated AUCINF, severe renal impairment” value [7]?
The value was about 44%.

And the substrate status [8]?
The substrate status was “substrate”.
